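96-well plates; 48 h exposure; 5 concentrations. Endpoints by linear interpolation between flanking doses. Not reached: highest tested concentration assigned. GI50 is the concentration that inhibits growth by half. TGI: total growth inhibition.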
Key:
Test in all cases: NCI tumour cell line growth inhibition, 48 h
[1] = system: SF-268 CNS
[2] = system: RPMI-8226 leukemia
[3] = system: HOP-92 NSCLC
[4] = system: SN12C renal
[5] = system: COLO 205 colon
[6] = system: NCI-H460 lung
[7] = system: MCF7 breast
[8] = system: TK-10 renal
[9] = system: K-562 leukemia
[10] = system: MOLT-4 leukemia

Compound	GI50 [1]	TGI [1]	GI50 [2]	TGI [2]	GI50 [3]	TGI [3]	GI50 [4]	TGI [4]	GI50 [5]	TGI [5]	GI50 [6]	TGI [6]	GI50 [7]	TGI [7]	GI50 [8]	TGI [8]	GI50 [9]	TGI [9]	GI50 [10]	TGI [10]
Nc1nc(N)c2c(n1)NC(c1ccc(Cl)cc1)C1CCc3ccccc3C1=N2 (stereo not given)	12.4 µM	26.9 µM	2.75 µM	11.5 µM	2.26 µM	9.83 µM	7.68 µM	21.7 µM	2.78 µM	9.05 µM	3.77 µM	12.9 µM	2.41 µM	10.4 µM	8.2 µM	23.2 µM	–	–	–	–
Cc1c(-c2c(F)cc(C(N)=O)c3[nH]c4c(c23)CC[C@H](C(C)(C)O)C4)cccc1-n1c(=O)c2cccc(F)c2n(C)c1=O	4.91 µM	> 100 µM	2.82 µM	9.01 µM	1.01 µM	6.94 µM	3.9 µM	> 100 µM	–	–	3.43 µM	> 100 µM	1.04 µM	> 100 µM	2.04 µM	8.03 µM	3.61 µM	> 100 µM	1.77 µM	6.58 µM
Cc1cc(C2CC(O)C(CO)O2)c(Br)cc1Br (stereo not given)	> 100 µM	> 100 µM	85.8 µM	> 100 µM	> 100 µM	> 100 µM	> 100 µM	> 100 µM	> 100 µM	> 100 µM	> 100 µM	> 100 µM	> 100 µM	> 100 µM	> 100 µM	> 100 µM	> 100 µM	> 100 µM	–	–
[N-]=[N+]=NCCCn1c2c(c3ccccc3c1=O)C(=O)c1cc3c(cc1-2)OCO3	81.7 µM	> 100 µM	> 100 µM	> 100 µM	28.1 µM	> 100 µM	> 100 µM	> 100 µM	–	–	8.25 µM	> 100 µM	0.817 µM	> 100 µM	45.3 µM	> 100 µM	25.9 µM	> 100 µM	19.6 µM	> 100 µM
Nc1ncnc2c1ncn2Cc1ccc(CCl)cc1	21.8 µM	57.9 µM	15.1 µM	> 100 µM	19 µM	51.6 µM	21.2 µM	35.6 µM	14.2 µM	31.4 µM	17 µM	41.1 µM	11.7 µM	62.7 µM	18.1 µM	65.7 µM	14.9 µM	> 100 µM	–	–
C=C1C(=O)O[C@H]2[C@H]1CC/C(COC(=O)NCCc1ccc(Br)cc1)=C\CC[C@@]1(C)O[C@@H]21	1.56 µM	3.19 µM	0.624 µM	2.89 µM	1.28 µM	2.77 µM	–	–	1.82 µM	3.57 µM	2.06 µM	4.64 µM	0.417 µM	1.82 µM	1.73 µM	3.12 µM	0.535 µM	5.61 µM	1.69 µM	4.8 µM
COc1cc(OC)c(OC)cc1/C=C/c1ccc2ccccc2n1	–	> 10 µM	–	> 10 µM	–	> 10 µM	–	> 10 µM	–	> 10 µM	–	–	–	> 10 µM	–	> 10 µM	–	> 10 µM	–	> 10 µM

— PubChem BioAssay (NCI)
